{"source": "paper PMC6359803", "about": "“Inhibition of inflammatory response in human keratinocytes by magnetic nanoparticles functionalized with PBP10 peptide derived from the PIP2-binding site of human plasma gelsolin” (Journal of Nanobiotechnology, 2019)", "key": {"A549 cells": {"test_system": "A549 cells", "assay": "Cell stiffness by atomic force microscopy (AFM) indentation", "format": "cell-based, human", "settings": "1 µg/mL LPS 24 h, agent 5 µg/mL", "procedure": "The stiffness of cells after 24 h stimulation with 1 µg/mL LPS was measured by indentation using atomic force microscopy (Nanowizard 4 Bioscience AFM, JPK Instruments, Germany). Adenocarcinomic human alveolar basal epithelial cells (A549 ATCC® CCL-185™) were cultured in high-glucose DMEM supplemented with 10% FBS at 37 °C with 5% CO2, placed on Ø 35 mm Petri dishes and allowed to attach and spread for 24 h before simultaneous stimulation with 1 µg/mL LPS (E. coli 026:B6) and treatment with 5 µg/mL of PBP10 or PBP10-based nanosystems. Immediately before the experiment, cells were placed in a CO2-independent buffer (Thermo Fisher Scientific, USA) to prevent changes in pH of the cellular environment during analysis. Elasticity measurements were taken with AFM working in force spectroscopy mode in liquid conditions, and cantilevers (ORC8, Bruker) with a spring constant of 0.1 N/m were used. From each tested cell, up to 64 force-indentation curves were collected in a grid of 8 × 8 pixels corresponding to a scan area of 10 × 10 µm with a maximal force of 2 nN. For indentation measurements, more than 1100 force-distance curves were recorded for each group from at least ten different cells. To determine the apparent Young’s modulus of different cells, force-indentation curves were fit to the Hertz contact model."}, "HaCaT cells [1]": {"test_system": "HaCaT cells", "assay": "IL-8 release (ELISA)", "format": "cell-based, human", "settings": "24 h", "procedure": "In order to assess release of interleukin-8 (IL-8) from stimulated keratinocytes, 5 × 10^4 HaCaT cells were treated with agents at concentrations of 2, 5 and 10 µg/mL and stimulated with 1 µg/mL LPS/LTA. The medium from LPS/LTA-treated cells was harvested after 24 h of incubation and the level of IL-8 was evaluated using an IL-8 Human ELISA Kit (Thermo Fisher Scientific)."}, "S. aureus A1": {"test_system": "S. aureus A1", "assay": "Killing assay (CFU counting)", "format": "cell-based, Staphylococcus aureus", "settings": "S. aureus A1, 1 h, doses 2-10 µg/mL, dose-dependent", "procedure": "(§1) To assess the bactericidal activity of PBP10-derived peptides and PBP10-containing nanosystems against E. coli and S. aureus bacterial strains, a killing assay based on counting colony forming units (CFU) was performed. For this purpose, E. coli and S. aureus strains were grown to mid-log phase at 37 °C, re-suspended in PBS, brought to 10^8 CFU/ml (which corresponds to 0.5 OD at a wavelength 600 nm) and diluted 1:100 to obtain sample containing approx. 10^6 CFU/mL. Bacteria were then added to PBS containing different concentrations of PBP10, RhB-PBP10 and RhB-PBP10-Cys and their nanosystems at doses of 2, 5 and 10 µg/mL. After 1 h of incubation at 37 °C, the plates were transferred to ice and suspensions were diluted 10- to 1000-fold in PBS. Then, 10 μL aliquots were spotted on agar plates for overnight culture at 37 °C in order to determine CFUs."}, "[2]": {"assay": "Fluorescence of unbound peptide after magnetic separation", "format": "physicochemical", "settings": "fluorescence relative to 1 mg/mL free peptide", "procedure": "PBP10-containing nanosystems were obtained by non-covalent bonding including electrostatic interactions or chemisorption of thiol groups to the gold surface. Nanoparticles (MNP@NH2 or MNP@Au) were dispersed in PBS to obtain solutions of 10 mg/mL concentration. Then nanoparticles were diluted to the concentration of 1 mg/mL and were mixed with the appropriate amount (1:1 volume ratio) of PBP peptide or PBP modified by cysteine and rhodamine (1 mg/mL solutions in PBS buffer). Prepared solutions were incubated for 2 days (nucleation) and used for further investigations. In order to avoid the loss of agents during the preparation process, no further purification of nanosystems was performed. To evaluate the efficiency of peptide attachment, fluorescence of unbound PBP10 peptides in solutions after magnetic separation of nanosystems was measured."}, "E. coli RS218": {"test_system": "E. coli RS218", "assay": "Killing assay (CFU counting)", "format": "cell-based, Escherichia coli", "settings": "E. coli RS218, 1 h, doses 2-10 µg/mL, dose-dependent", "procedure": "as §1"}, "[3]": {"assay": "MTT viability / metabolic activity assay", "format": "cell-based, human", "settings": "human", "procedure": "(§2) The viability and metabolic activity of cells were measured using a microculture tetrazolium test (MTT; 3-(4,5-dimethylthiazol-2-yl)-2,5-diphenyltetrazolium bromide) as described previously. HaCaT cells were seeded at a density of 5 × 10^4 cells/well in transparent 96-well plates and cultured until ~ 85% confluence; after that medium was replaced with serum-free medium and cells were serum starved for another 12 h. To determine the non-toxic concentrations, the peptides and their magnetic derivatives in concentrations ranging from 1 to 50 µg/mL were added to each well and incubated for 24 h at 37 °C under 5% CO2. The optical density at 490 nm was assessed after 2 h incubation of plates with MTT solution (5 mg/mL) and the addition of formazan salt in dimethyl sulfoxide (DMSO). The absorbance value obtained in cultures of control cells (with solvents alone) was taken as 100%. The average of all the experiments is shown as cell viability percentage in comparison to the control."}, "HaCaT cells [4]": {"test_system": "HaCaT cells", "assay": "Nitric oxide assay (nitrite, Griess reagent)", "format": "cell-based, human", "settings": "1 µg/mL LTA-stimulated HaCaT, 10 µg/mL agent, 24 h", "procedure": "The nitric oxide assay was performed as described previously and the quantity of nitrite in the culture medium was measured as an indicator of NO production. Amounts of nitrite, a stable metabolite of NO, were measured using the Griess reagent (1% sulfanilamide and 0.1% naphthylethylenediamine dihydrochloride in 2.5% phosphoric acid). Briefly, 5 × 10^4 HaCaT cells were seeded in transparent 96-well plates and cultured until 85% confluence was reached. After that, cells were washed with PBS, and agents at final concentrations of 2, 5 and 10 µg/mL were added to each well. Simultaneously, keratinocytes were stimulated with 1 µg/mL LPS (E. coli 026:B6), 1 µg/mL LTA (from Staphylococcus aureus) or heat-inactivated suspensions of E. coli or S. aureus (~ 10^6 CFU/mL) and incubated in serum-free medium for 24 h. Next, 50 µL of cell culture medium was mixed with 50 µL of Griess reagent, incubated at room temperature for 15 min, and the absorbance at 540 nm was measured in a microplate reader. Fresh culture medium was used as a blank in every experiment."}, "HaCaT cells [5]": {"test_system": "HaCaT cells", "assay": "ROS formation (DFCH-DA fluorescence)", "format": "cell-based, human", "settings": "1 µg/mL LPS-stimulated HaCaT, 10 µg/mL agent, 24 h", "procedure": "The generation of reactive oxygen species from stimulated HaCaT cells was measured using 2′,7′-dichlorofluorescein diacetate (DFCH-DA) as the fluorescent probe. For this purpose, 5 × 10^4 of HaCaT cells, cultured until ~ 85% confluence and incubated simultaneously with peptides or their magnetic derivatives at concentrations of 2, 5 and 10 µg/mL and with 1 µg/mL LPS/LTA or heat-inactivated bacteria for 24 h. Next, cells were washed twice with PBS, and DFCH-DA in PBS at the concentration of 20 µM was added. Fluorescence was measured for 90 min immediately after the addition of the dye at excitation/emission wavelengths of 488/535 nm."}, "HaCaT cells [6]": {"test_system": "HaCaT cells", "assay": "MTT viability / metabolic activity assay", "format": "cell-based, human", "settings": "24 h", "procedure": "as §2"}}, "note": "Read-outs that look alike come from different tables or passages of the source. Ends that are not written are not given here. Peptide text beside a SMILES is read from it. * marks the point of attachment. RhodamineB = CCN(CC)c1ccc2c(-c3ccccc3C(=O)*)c3ccc(=[N+](CC)CC)cc-3oc2c1", "data": [{"molecule": "Lipopolysaccharide from Escherichia coli O26:B6 [LPS]", "values": [{"measurement": "Young's modulus", "setting": "A549 cells; indentation depth 1 µm", "value": "3.1 ± 0.08", "unit": "kPa"}, {"measurement": "Young's modulus", "setting": "A549 cells; indentation depth 300 nm", "value": "4.3 ± 0.07", "unit": "kPa"}, {"measurement": "IL-8 level", "setting": "HaCaT cells [1]; 1 µg/mL LPS-stimulated HaCaT", "value": "504.9 ± 49.39", "unit": "pg/mL"}]}, {"molecule": "CCN(CC)c1ccc2c(-c3ccccc3C(=O)N[C@@H](CCC(N)=O)C(=O)N[C@@H](CCCNC(=N)N)C(=O)N[C@@H](CC(C)C)C(=O)N[C@@H](Cc3ccccc3)C(=O)N[C@@H](CCC(N)=O)C(=O)N[C@H](C(=O)N[C@@H](CCCCN)C(=O)NCC(=O)N[C@@H](CCCNC(=N)N)C(=O)N[C@@H](CCCNC(=N)N)C(=O)N[C@@H](CS)C(=O)O)C(C)C)c3ccc(=[N+](CC)CC)cc-3oc2c1", "note": "[RhB-PBP10-Cys] (RhodamineB-QRLFQVKGRRC-OH; N-terminus and C-terminus assumed)", "values": [{"measurement": "decrease of bacterial viability", "setting": "S. aureus A1", "value": "more than 95%"}, {"measurement": "% of remaining peptide (unbound) in solution after magnetic separation", "setting": "[2]", "value": "≤ 5", "unit": "%"}, {"measurement": "decrease of bacterial viability", "setting": "E. coli RS218", "value": "more than 95%"}, {"measurement": "viability at 24 h, 10 µg/mL", "setting": "[3]; 10 µg/mL, 24 h, control = 100%, read-out: viability of HaCaT cells", "value": "80 ± 6.6", "unit": "%"}]}, {"molecule": "CCN(CC)c1ccc2c(-c3ccccc3C(=O)N[C@@H](CCC(N)=O)C(=O)N[C@@H](CCCNC(=N)N)C(=O)N[C@@H](CC(C)C)C(=O)N[C@@H](Cc3ccccc3)C(=O)N[C@@H](CCC(N)=O)C(=O)N[C@H](C(=O)N[C@@H](CCCCN)C(=O)NCC(=O)N[C@@H](CCCNC(=N)N)C(=O)N[C@@H](CCCNC(=N)N)C(=O)O)C(C)C)c3ccc(=[N+](CC)CC)cc-3oc2c1", "note": "[RhB-PBP10, rhodamine B-QRLFQVKGRR] (RhodamineB-QRLFQVKGRR-OH; N-terminus and C-terminus assumed)", "values": [{"measurement": "decrease of bacterial viability", "setting": "S. aureus A1", "value": "more than 95%"}, {"measurement": "NO production (% of untreated stimulated control)", "setting": "HaCaT cells [4]", "value": "63.16 ± 14.01", "unit": "%"}, {"measurement": "decrease of bacterial viability", "setting": "E. coli RS218", "value": "more than 95%"}, {"measurement": "ROS production (% of untreated stimulated control)", "setting": "HaCaT cells [5]", "value": "30.33 ± 3.31", "unit": "%"}]}, {"molecule": "QRLFQVKGRR [PBP10, QRLFQVKGRR]", "values": [{"measurement": "viability at 24 h, 10 µg/mL", "setting": "[3]", "value": "83 to 101", "unit": "%"}, {"measurement": "IC50", "setting": "HaCaT cells [6]", "value": "> 50", "unit": "µg/mL"}]}, {"molecule": "lipoteichoic acid from Staphylococcus aureus [LTA]", "values": [{"measurement": "IL-8 level", "setting": "HaCaT cells [1]; 1 µg/mL LTA-stimulated HaCaT", "value": "749.2 ± 55.81", "unit": "pg/mL"}]}]}
